The test concerns the target Ubiquitin carboxyl-terminal hydrolase 30 (Homo sapiens) (UniProt Q70CQ3). In words: ubiquitin-specific protease 30 DUB inhibitors, concentration-effect, biochemical, validation of primary actives (AID 1645865). The note with it: purified USP30, Ub-rhodamine cleavage, fluorescence, 2 h.

Broadly, the IC50 is the concentration that gives 50% inhibition.

Calls of active or inactive are those of the source.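 How the source made its calls: active means maximal inhibition of the USP30 enzyme reaching 30% or more across the dose series; inactive means the rest.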

Chain of Ubiquitin carboxyl-terminal hydrolase 30 (Homo sapiens) (Q70CQ3 whole entry, looked up): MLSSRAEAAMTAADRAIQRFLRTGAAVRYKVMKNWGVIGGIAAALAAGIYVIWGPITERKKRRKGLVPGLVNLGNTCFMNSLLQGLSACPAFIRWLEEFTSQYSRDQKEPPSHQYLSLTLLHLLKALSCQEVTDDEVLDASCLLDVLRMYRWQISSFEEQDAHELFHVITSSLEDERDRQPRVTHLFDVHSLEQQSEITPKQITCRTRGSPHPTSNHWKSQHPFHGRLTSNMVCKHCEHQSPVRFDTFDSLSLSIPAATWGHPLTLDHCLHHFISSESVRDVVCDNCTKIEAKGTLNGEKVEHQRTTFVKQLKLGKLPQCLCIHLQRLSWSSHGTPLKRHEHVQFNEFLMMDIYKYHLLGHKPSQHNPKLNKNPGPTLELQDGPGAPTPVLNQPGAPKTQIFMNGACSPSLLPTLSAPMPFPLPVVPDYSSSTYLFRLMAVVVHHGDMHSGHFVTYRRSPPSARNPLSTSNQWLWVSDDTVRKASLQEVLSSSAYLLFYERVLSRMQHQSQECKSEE

Regarding `CCCCN(CC)c1ncnc2c1sc1nc(-c3ccco3)c3c(c12)CC(C)(C)OC3`, the IC50 is > 50 µM (inactive).

On to `CC(=O)c1sc(NC(=O)/C=C/c2ccccc2)nc1-c1ccccc1`, for which the IC50 is 18 µM.

Consider `Cc1ccc(CNC(=O)Cn2cnc3c(cnn3-c3cccc(Cl)c3)c2=O)cc1`, for which the IC50 was 1.15 µM.

Turning to `CN1CC2CN(C(=O)Nc3cccnc3)CCN2Cc2ccccc21` (configuration not stated), the IC50 was > 50 µM (inactive).

Consider `COc1ccc(-c2cc(-c3nnc4n3CCCCC4)n(-c3ccccc3)n2)cc1`, for which the IC50 is 39.3 µM.

With `O=C(NCc1ccc(-c2nc3cnccc3o2)cc1)c1cc2ccccc2o1`, the IC50 was 2.99 µM.

Regarding `CCc1c(C)c(C#N)c2nc3ccccc3n2c1N1CCN(C2CCCC2)CC1`, the IC50 is 1.7 µM.

Regarding `O=C(COc1ccc(Cl)cc1)NCc1nnc(SCC(=O)NCc2ccc3c(c2)OCO3)o1`, the IC50 is 25.8 µM.

As to `CCOC(=O)Nc1ccc(N2CCn3c(nc4ccccc43)C2)cc1OC`, the IC50 is > 50 µM (inactive).

`Cc1nc(-c2noc(-c3ccncc3)n2)cn1CC(=O)N1CCN(c2ccc(F)cc2)CC1`: the IC50 is 39.1 µM.

As to `c1csc(CCN2CCc3nc4cccnc4cc3C2)c1`, the IC50 was > 50 µM (inactive).

Take `Cc1cc(-n2c(C)cc(-c3csc(N)n3)c2C)no1`: the IC50 is > 50 µM (inactive).

Take `COc1cc(C2SCC(=O)Nc3c2c(-c2ccccc2)nn3-c2ccccc2)cc(OC)c1OC` (configuration not stated): the IC50 is > 50 µM (inactive).

With `Oc1cc(OCc2cccc(C(F)(F)F)c2)ccc1-c1ccn[nH]1`, the IC50 was 37.3 µM.

For the molecule `CCCOc1ccc(C(=O)Nc2ccc(S(=O)(=O)Nc3cc(C)nc(C)n3)cc2)cc1`, the IC50 is > 50 µM (inactive).

Take `CCc1ccc(C(C)NC(=O)C2CCN(c3ccc4nncn4n3)CC2)cc1` (configuration not stated): the IC50 is > 50 µM (inactive).

Consider `COc1cccc2c1C(=O)c1ccc3c(c1C2=O)C(=O)CC(C)(O)C3` (configuration not stated), for which the IC50 was > 50 µM (inactive).

Turning to `CC(C)CC(NC(=O)c1ccc(Cl)cc1Cl)c1nc2ccccc2[nH]1` (configuration not stated), the IC50 was > 50 µM (inactive).

As for `COc1ccc(Cl)cc1NC(=O)c1cc(-c2ccccn2)n[nH]1`, the IC50 was 0.164 µM.

As for `Cc1[nH]nc(NC(=O)C2COc3ccccc3O2)c1-c1ccccc1` (configuration not stated), the IC50 was 40.7 µM.

`Cc1nc(C(=O)N[C@@H](C)C(=O)NCc2ccc3c(c2)OCO3)cc2c1[nH]c1ccccc12`: the IC50 is > 50 µM (inactive).

Take `COc1cccc(-n2c(CNCc3cccnc3)nc3ccc([N+](=O)[O-])cc3c2=O)c1`: the IC50 is 25.2 µM.

For the molecule `O=C1Nc2c(Cl)cc(Cl)cc2C1(O)c1sc(NC2CCCCC2)nc1-c1ccccc1` (configuration not stated), the IC50 is 31.2 µM.

In the case of `Cc1c(OCC(=O)NCC(=O)N2CCC3(O)CCCCC3C2)ccc2c3c(c(=O)oc12)CCCC3` (configuration not stated), the IC50 was 23.7 µM.

Turning to `Cn1c(COc2ccccc2)nnc1SCC(=O)Nc1ccc(N2CCOCC2)cc1`, the IC50 was 20 µM.

Consider `O=C(COc1ccccc1-c1nnc(-c2ccccc2)o1)Nc1ccc(F)cc1F`, for which the IC50 is 2.16 µM.

On to `O=C1CC(C(=O)Nc2ccccc2Cl)n2nc(-c3ccccc3)cc2N1` (configuration not stated), for which the IC50 is 20.1 µM.

Regarding `Cc1cccc(C(=O)OCC(=O)Nc2ccc3[nH]c(=O)[nH]c3c2)c1C`, the IC50 is 2.85 µM.

In the case of `Cc1c(CC(=O)N2CCN(c3ncccn3)CC2)c(=O)oc2cc(O)ccc12`, the IC50 is 26.3 µM.

As to `Cc1ccc(-n2nc(C(=O)Nc3ccc(C)cn3)c3ncn(C)c(=O)c32)cc1`, the half-maximal inhibitory concentration (IC50) was 1.82 µM.

Take `O=C(NCC(c1cccnc1)N1CCc2ccccc2C1)C(=O)Nc1ccc2c(c1)OCO2` (configuration not stated): the IC50 is 33.3 µM.

As to `O=C(Nc1ccc2c(c1)N(C(=O)C1CCCC1)CC2)c1c(F)cccc1F`, the IC50 is 24.2 µM.

Turning to `CC1CCCN1C(=O)c1ccn(-c2ccc3ccc(-c4cccnc4)cn23)n1` (configuration not stated), the IC50 is > 50 µM (inactive).

Consider `COc1cccc(C(=O)NCC(=O)Nc2nc3ccccc3[nH]2)c1`, for which the IC50 was 34.3 µM.

Take `COc1cc(NC(=O)Cn2c(=O)n(-c3ccc(CC(=O)NC4CCCC4)cc3)c(=O)c3ccccc32)cc(OC)c1`: the IC50 is > 50 µM (inactive).

As to `CCc1nc(-c2cc(C(=O)N3CCOCC3)c3ccccn23)cs1`, the IC50 was > 50 µM (inactive).

With `Cc1c(C)c2ccc(OCC(=O)NCc3ccncc3)c(C)c2oc1=O`, the IC50 is 31.1 µM.

On to `CC(C)(C)C(=O)C1C2C(=O)N(c3ccc4c(c3)OCO4)C(=O)C2C2c3ccccc3C=CN12` (configuration not stated), for which the IC50 is > 50 µM (inactive).

In the case of `O=C1C/C(=C\c2cccc(Cl)c2)Cc2ccccc21`, the IC50 is > 50 µM (inactive).

Regarding `CCN1C[C@@H]2C[C@]2(c2ccccc2OC)C(=O)c2ncccc21`, the IC50 is > 50 µM (inactive).

With `CCCCNC(=O)C1Sc2nnc(-c3ccccc3)n2NC1c1ccccc1` (configuration not stated), the IC50 was 21.8 µM.

In the case of `Cc1ccc(NC(=O)CCC(=O)Nc2ccc3nc(N4CCCCC4)cc(C)c3c2)c(Br)c1`, the IC50 is 36.4 µM.

With `COc1cc(-c2nc(C(N)=O)c3[nH]c(=O)n(-c4ccc(C)cc4)c3n2)cc(OC)c1OC`, the half-maximal inhibitory concentration (IC50) is 2.13 µM.

In the case of `O=C(CN(Cc1ccc(Cl)cc1)S(=O)(=O)c1ccc(Cl)cc1)N1CCOCC1`, the IC50 was > 50 µM (inactive).

In the case of `O=c1oc2ccccc2c2nn(-c3ccccn3)cc12`, the IC50 is 16.7 µM.

`Cc1ccc(Cn2cc(-c3noc(-c4ccncc4)n3)nn2)cc1`: the IC50 is 27.6 µM.

Take `O=C(Nc1oc2ccccc2c(=O)c1-c1ccc2c(c1)OCO2)C1CCCCC1`: the IC50 was 27.2 µM.

Turning to `N#Cc1ccc(Cn2nnc(-c3cccc(Cl)c3)n2)cc1`, the IC50 was > 50 µM (inactive).

Consider `Cn1c(=O)cc(SCC(=O)NC2CCN(Cc3ccccc3)CC2)c2ccc(Cl)cc21`, for which the IC50 was 28.8 µM.

Regarding `CC(C)CC(=O)Nc1cc(F)c2nc(N3CCOCC3)ccc2c1`, the IC50 is > 50 µM (inactive).

For the molecule `COC(=O)c1c(C)[nH]c(C(=O)C(C)OC(=O)CCC2CCCC2)c1C` (configuration not stated), the IC50 was > 50 µM (inactive).

`COc1ccc(CCC(=O)Nc2ccc3c(c2)Sc2ncccc2C(=O)N3C)cc1`: the IC50 is > 50 µM (inactive).

Turning to `Cc1cc(C(F)(F)F)n(-c2ccc(NC(=O)Nc3cccc(C(F)(F)F)c3)cc2)n1`, the IC50 is 8.68 µM.

In the case of `COc1ccc2c(c1)c(N1CCCC1=O)c(C(=O)NCc1cccc(OC)c1OC)n2C`, the IC50 is > 50 µM (inactive).

Consider `CC1CCN(c2cc(-n3cnc(C(=O)N4CCCC(C)C4)c3)ncn2)CC1` (configuration not stated), for which the IC50 was > 50 µM (inactive).

As for `COc1ccc(CCNC(=O)c2c(N)n(-c3cccc(Cl)c3)c3nc4ccccc4nc23)cc1`, the IC50 was > 50 µM (inactive).

Take `Cc1ccc2cc3c(nc2n1)CCN(Cc1ccc(F)cc1)C3`: the IC50 is > 50 µM (inactive).

For `COc1ccc(NC(=O)c2nnc(C(=O)NCCN3CCCCCC3)s2)cc1`, the IC50 is 5.34 µM.

In the case of `COc1ccc(C2CC(=O)Nc3ccc4ccccc4c32)c(OC)c1OC` (configuration not stated), the IC50 is 22.3 µM.

For `C/C1=C/C=C/[C@H](C)[C@H](O)[C@@H](C)[C@@H](O)[C@@H](C)[C@H](O)[C@H](C)[C@@H](O)[C@@H](C)/C=C(/C)C(=O)c2c(O)c(C)cc3c2C(=O)C=C(NC1=O)C3=O`, the IC50 was > 50 µM (inactive).

For the molecule `CC(=O)[C@H]1c2c(c(O)c3c(O)cccc3c2-c2c3c(c(O)c4c(O)cccc24)C(=O)C[C@](C)(O)[C@H]3C(C)=O)C(=O)C[C@]1(C)O`, the IC50 was > 50 µM (inactive).

In the case of `COc1ccc(CCNC(=O)c2noc3c2CCc2sccc2-3)cc1OC`, the IC50 is 39.9 µM.

Turning to `Nc1c(C(=O)NCc2ccc3c(c2)OCO3)nnn1Cc1ccc(Br)cc1F`, the IC50 is 2.35 µM.

As to `CC1CCc2c(sc3ncnc(NC4CCN(CC(N)=O)CC4)c23)C1` (configuration not stated), the IC50 was > 50 µM (inactive).

Turning to `COc1ccc(-c2nc(SCC(=O)Nc3ccc(C(C)=O)cc3)n[nH]2)cc1`, the IC50 was 11.1 µM.

`CC(=O)Nc1ccc(-n2cnc(C(=O)NCc3ccc(C)cc3)c2)nc1`: the IC50 was 21.2 µM.

For the molecule `O=C(Nc1ccc2c(c1)OCO2)c1cc(-c2cccnc2)n(-c2ccccc2)n1`, the IC50 is > 50 µM (inactive).

Consider `CCn1c(SCc2cccc(C)c2)nnc1-c1cnccn1`, for which the IC50 was > 50 µM (inactive).

For the molecule `O=[N+]([O-])c1ccccc1C(c1c[nH]c2ccccc12)c1c[nH]c2ccccc12`, the IC50 was > 50 µM (inactive).

As to `O=C(Cn1cncc(C(=O)NC2CCCC2)c1=O)Nc1cccc(F)c1`, the IC50 is 19.3 µM.

Regarding `COc1ncccc1CN1CCn2c(Cn3cccn3)cnc2C1C` (configuration not stated), the IC50 is > 50 µM (inactive).

Regarding `O=C(Nc1ccc2c(c1)OCCO2)C1CCN(C(=O)c2cc(-c3cccnc3)n[nH]2)CC1`, the IC50 is > 50 µM (inactive).

On to `COc1ccc(OC)c(CCNC(=O)CCC2=NS(=O)(=O)c3ccc(C(F)(F)F)cc3N2)c1`, for which the IC50 is 23.5 µM.

Turning to `O=C1COc2ccccc2N1Cc1noc(-c2ccccc2)n1`, the IC50 is > 50 µM (inactive).

Turning to `COc1ccc(-c2nc(SCC(=O)Nc3ccc(Cl)cc3F)n[nH]2)cc1`, the IC50 is > 50 µM (inactive).

`Cc1cccc(N2CCN(C(=O)c3nnn(-c4ccc(F)cc4)n3)CC2)c1`: the IC50 is > 50 µM (inactive).

As to `O=C1CC(c2ccco2)Cc2[nH]c(=O)c(-c3nc(-c4ccc(Cl)cc4)cs3)cc21` (configuration not stated), the IC50 was > 50 µM (inactive).

For `O=C(Nc1ccc(-c2cn3ccsc3n2)cc1)c1ccc(Cl)c([N+](=O)[O-])c1`, the IC50 was 1.27 µM.

In the case of `Cc1ccc(N=Cc2sc(O)c3ccccc23)c(C)c1`, the IC50 was > 50 µM (inactive).

Consider `Cc1cc(C)c2sc(N(CCCn3ccnc3)C(=O)Cc3ccccc3)nc2c1`, for which the IC50 is 17.5 µM.

With `Cn1cc(CCNC(=O)c2cc3ccccc3[nH]2)c2cccnc21`, the IC50 was > 50 µM (inactive).

In the case of `Cc1nc(N2CCCC2)ncc1-c1cc(=O)[nH]c(N2CCc3ccccc3C2)n1`, the IC50 was 24.4 µM.

Regarding `COc1ncccc1CN1CCn2c(Cn3cncn3)cnc2C1C` (configuration not stated), the IC50 is > 50 µM (inactive).

On to `Cc1cc(/C=C2/C(=N)N3C(c4ccccc4)=CSC3=NC2=O)c(C)n1-c1ccc(F)cc1`, for which the IC50 is > 50 µM (inactive).

As for `Cc1ccc2oc(=O)c(S(=O)(=O)N3CCCCC3)cc2c1`, the IC50 was 12.7 µM.

For `Cc1ccc(-n2c(=O)[nH]c3c(C(N)=O)nc(-c4cccnc4)nc32)cc1`, the IC50 is 3.37 µM.

Consider `CCc1noc(-c2ccc(OCC(=O)Nc3ccc(C)cc3C)cc2)n1`, for which the IC50 is 29 µM.
